From ChEMBL document CHEMBL5230103, “Hydroxamic acid hybrids as the potential anticancer agents: An Overview” (Eur J Med Chem, 2020) come the findings set out here.

One data set has as its system PC-3. Nature of the data set: Cytotoxicity against human PC-3 cells assessed as inhibition of cell growth by MTT assay. It is filed as functional, cell-based.
In the next data set the test system is LNCaP. Nature of the data set: Cytotoxicity against human LNCaP cells assessed as inhibition of cell growth by MTT assay. The data set is classed as functional, cell-based. Background: Tetrazolium assays rely on reduction of a dye to a coloured formazan, in cell work by metabolically active cells.
A further data set deals with MOLT-4. In words: Cytotoxicity against human MOLT-4 cells assessed as inhibition of cell growth by MTT assay. The data set is classed as functional, cell-based.
The next data set concerns SW-620. In words: Cytotoxicity against human SW620 cells assessed as inhibition of cell growth by MTT assay. The data set is classed as functional, cell-based.
For another data set, the system named is HCT-116. In words: Cytotoxicity against human HCT-116 cells assessed as inhibition of cell growth by MTT assay. The data set is classed as functional, cell-based.
In a further data set the test system is AGS. In words: Cytotoxicity against human AGS cells assessed as inhibition of cell growth by MTT assay. The data set is classed as functional, cell-based.
For a further data set, the system named is SUP-T1. Nature of the data set: Cytotoxicity against human SUP-T1 cells assessed as inhibition of cell growth by MTT assay. It is filed as functional, cell-based.
In another data set the test system is T47D. In words: Cytotoxicity against human T47D cells assessed as inhibition of cell growth by MTT assay. It is filed as functional, cell-based.
Data set [1] has as its target cGMP-specific 3',5'-cyclic phosphodiesterase (Homo sapiens, UniProt O76074). In words: Inhibition of PDE5 (unknown origin).
The target in a further data set is Histone deacetylase. Nature of the data set: Inhibition of HDAC (unknown origin). The data set is classed as protein assay, Homo sapiens.
The next data set has as its system HT-29. Nature of the data set: Cytotoxicity against human HT-29 cells assessed as inhibition of cell growth by MTT assay. It is filed as functional, cell-based.
The subject of a further data set is K562. In words: Cytotoxicity against human K562 cells assessed as inhibition of cell growth by MTT assay. It is filed as functional, cell-based.
Another data set has as its system T98G. Nature of the data set: Cytotoxicity against human T98G cells assessed as inhibition of cell growth by MTT assay. It is filed as functional, cell-based.
The next data set relates to U-251. Nature of the data set: Cytotoxicity against human U-251 cells assessed as inhibition of cell growth by MTT assay. It is filed as functional, cell-based.
A short description of data set [2]: Cytotoxicity against human U87 cells assessed as inhibition of cell growth by MTT assay. The data set is classed as functional, cell-based, U-87MG ATCC. The conditions noted are these: U-87 MG.
A short description of data set [3]: Selectivity index, ratio of IC50 for cytotoxicity against human MCF-10F cells to IC50 for cytotoxicity against human MDA-MB-231 cells. The data set is classed as toxicity, cell-based. The note with it: MCF-10F cells and MDA-MB-231 cells, read-out: Ratio IC50.
Data set [4] is described as follows: Cytotoxicity against human MCF-10A cells. It is filed as toxicity, cell-based.
Data set [5] has as its system A549. Nature of the data set: Cytotoxicity against human A549 cells assessed as inhibition of cell growth by MTT assay. The data set is classed as functional, cell-based.
Data set [6] is described as follows: Selectivity index, ratio of IC50 for cytotoxicity against human MCF-10A cells to IC50 for cytotoxicity against human MDA-MB-231 cells. The conditions noted are these: MCF-10A cells and MDA-MB-231 cells, read-out: Ratio IC50. It is filed as toxicity, cell-based.
Data set [7] relates to MDA-MB-231. In words: Cytotoxicity against human MDA-MB-231 cells assessed as inhibition of cell growth by MTT assay. The data set is classed as functional, cell-based.
A short description of data set [8]: Selectivity index, ratio of IC50 for cytotoxicity against human BEAS-2B cells to IC50 for cytotoxicity against human A549 cells. It is filed as toxicity, cell-based. The note with it: BEAS-2B cells and A549 cells, read-out: Ratio IC50.
Data set [9] is described as follows: Selectivity index, ratio of IC50 for cytotoxicity against human MCF-10F cells to IC50 for cytotoxicity against human MCF7 cells. It is filed as toxicity, cell-based. The note with it: MCF-10F cells and MCF7 cells, read-out: Ratio IC50.
The nature of data set [10]: Selectivity index, ratio of IC50 for cytotoxicity against human MCF-10A cells to IC50 for cytotoxicity against human MCF7 cells. The conditions noted are these: MCF-10A cells and MCF7 cells, read-out: Ratio IC50. The data set is classed as toxicity, cell-based.
For data set [11], the system named is MCF7. Nature of the data set: Cytotoxicity against human MCF7 cells assessed as inhibition of cell growth by MTT assay. The data set is classed as functional, cell-based.
The target in the next data set is Histone deacetylase 2 (Homo sapiens, UniProt Q92769). Nature of the data set: Inhibition of HDAC2 (unknown origin).
Chain of Histone deacetylase 2 (Q92769 whole entry): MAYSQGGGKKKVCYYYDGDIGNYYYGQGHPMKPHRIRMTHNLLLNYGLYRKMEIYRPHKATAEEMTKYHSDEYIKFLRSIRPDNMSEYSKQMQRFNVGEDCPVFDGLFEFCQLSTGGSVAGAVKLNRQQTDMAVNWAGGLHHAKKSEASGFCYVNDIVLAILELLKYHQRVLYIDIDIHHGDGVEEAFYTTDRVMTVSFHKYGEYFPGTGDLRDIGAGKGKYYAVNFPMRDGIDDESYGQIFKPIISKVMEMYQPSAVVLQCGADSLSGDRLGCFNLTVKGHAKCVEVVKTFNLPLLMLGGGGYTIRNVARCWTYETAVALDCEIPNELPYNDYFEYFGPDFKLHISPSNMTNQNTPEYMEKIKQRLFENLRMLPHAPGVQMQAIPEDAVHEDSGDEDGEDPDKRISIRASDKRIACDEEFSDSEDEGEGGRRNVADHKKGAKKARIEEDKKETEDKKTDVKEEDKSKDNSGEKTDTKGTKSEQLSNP
A short description of data set [12]: Selectivity index, ratio of IC50 for cytotoxicity against human MCF-10F cells to IC50 for cytotoxicity against human A549 cells. The note with it: MCF-10F cells and A549 cells, read-out: Ratio IC50. It is filed as toxicity, cell-based.
A short description of data set [13]: Cytotoxicity against human BEAS-2B cells. The data set is classed as toxicity, cell-based.
The nature of data set [14]: Cytotoxicity against human MCF-10F cells. It is filed as toxicity, cell-based.
For a further data set, the target named is Histone deacetylase 1 (Homo sapiens, UniProt Q13547). In words: Inhibition of HDAC1 (unknown origin).
Chain of Histone deacetylase 1 (Q13547 whole entry): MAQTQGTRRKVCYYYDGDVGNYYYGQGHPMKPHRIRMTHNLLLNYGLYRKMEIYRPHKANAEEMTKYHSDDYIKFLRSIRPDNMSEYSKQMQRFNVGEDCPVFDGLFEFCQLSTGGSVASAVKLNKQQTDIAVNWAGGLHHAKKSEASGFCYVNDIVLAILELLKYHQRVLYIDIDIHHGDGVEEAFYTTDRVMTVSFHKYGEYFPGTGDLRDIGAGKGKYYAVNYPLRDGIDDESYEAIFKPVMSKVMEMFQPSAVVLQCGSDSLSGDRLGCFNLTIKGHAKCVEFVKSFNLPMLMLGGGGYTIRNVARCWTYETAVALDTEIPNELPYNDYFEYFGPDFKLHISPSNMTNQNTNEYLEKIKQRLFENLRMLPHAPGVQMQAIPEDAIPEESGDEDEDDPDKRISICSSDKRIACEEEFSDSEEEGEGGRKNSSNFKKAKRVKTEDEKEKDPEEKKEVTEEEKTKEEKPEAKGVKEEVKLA
The nature of data set [15]: Selectivity index, ratio of IC50 for cytotoxicity against human BEAS-2B cells to IC50 for cytotoxicity against human MCF7 cells. It is filed as toxicity, cell-based. The note with it: BEAS-2B cells and MCF7 cells, read-out: Ratio IC50.
For data set [16], the system named is MDA-MB-231. Nature of the data set: Antitumor activity against human MDA-MB-231 cells xenografted in mouse assessed as reduction on tumor volume at 20 mg/kg, ip relative to control. On the set-up: scale not given: the % may be the effect or the level left. It is filed as functional. In general terms: A xenograft is tissue or cells of one species grown in another, often human tumour cells in immunodeficient mice.

In data set [17] the test system is MCF7. In words: Potency index, ratio of vorinostat IC50 to test compound IC50 for cytotoxicity against human MCF7 cells assessed as inhibition of cell growth by MTT assay. It is filed as functional.
Data set [18] has as its system MDA-MB-231. In words: Potency index, ratio of vorinostat IC50 to test compound IC50 for cytotoxicity against human MDA-MB-231 cells assessed as inhibition of cell growth by MTT assay. The data set is classed as functional.
Data set [19] can be described thus: Selectivity index, ratio of IC50 for cytotoxicity against human MCF-10A cells to IC50 for cytotoxicity against human A549 cells. It is filed as toxicity, cell-based. The note with it: MCF-10A cells and A549 cells, read-out: Ratio IC50.
A short description of data set [20]: Selectivity index, ratio of IC50 for cytotoxicity against human BEAS-2B cells to IC50 for cytotoxicity against human MDA-MB-231 cells. The data set is classed as toxicity, cell-based. The note with it: BEAS-2B cells and MDA-MB-231 cells, read-out: Ratio IC50.
Another data set concerns the target Histone deacetylase 8 (Homo sapiens, UniProt Q9BY41). In words: Inhibition of HDAC8 (unknown origin).
For data set [21], the target named is T1, Protein deacetylase HDAC6 (Homo sapiens, UniProt Q9UBN7).
T1 sequence (Q9UBN7 whole entry): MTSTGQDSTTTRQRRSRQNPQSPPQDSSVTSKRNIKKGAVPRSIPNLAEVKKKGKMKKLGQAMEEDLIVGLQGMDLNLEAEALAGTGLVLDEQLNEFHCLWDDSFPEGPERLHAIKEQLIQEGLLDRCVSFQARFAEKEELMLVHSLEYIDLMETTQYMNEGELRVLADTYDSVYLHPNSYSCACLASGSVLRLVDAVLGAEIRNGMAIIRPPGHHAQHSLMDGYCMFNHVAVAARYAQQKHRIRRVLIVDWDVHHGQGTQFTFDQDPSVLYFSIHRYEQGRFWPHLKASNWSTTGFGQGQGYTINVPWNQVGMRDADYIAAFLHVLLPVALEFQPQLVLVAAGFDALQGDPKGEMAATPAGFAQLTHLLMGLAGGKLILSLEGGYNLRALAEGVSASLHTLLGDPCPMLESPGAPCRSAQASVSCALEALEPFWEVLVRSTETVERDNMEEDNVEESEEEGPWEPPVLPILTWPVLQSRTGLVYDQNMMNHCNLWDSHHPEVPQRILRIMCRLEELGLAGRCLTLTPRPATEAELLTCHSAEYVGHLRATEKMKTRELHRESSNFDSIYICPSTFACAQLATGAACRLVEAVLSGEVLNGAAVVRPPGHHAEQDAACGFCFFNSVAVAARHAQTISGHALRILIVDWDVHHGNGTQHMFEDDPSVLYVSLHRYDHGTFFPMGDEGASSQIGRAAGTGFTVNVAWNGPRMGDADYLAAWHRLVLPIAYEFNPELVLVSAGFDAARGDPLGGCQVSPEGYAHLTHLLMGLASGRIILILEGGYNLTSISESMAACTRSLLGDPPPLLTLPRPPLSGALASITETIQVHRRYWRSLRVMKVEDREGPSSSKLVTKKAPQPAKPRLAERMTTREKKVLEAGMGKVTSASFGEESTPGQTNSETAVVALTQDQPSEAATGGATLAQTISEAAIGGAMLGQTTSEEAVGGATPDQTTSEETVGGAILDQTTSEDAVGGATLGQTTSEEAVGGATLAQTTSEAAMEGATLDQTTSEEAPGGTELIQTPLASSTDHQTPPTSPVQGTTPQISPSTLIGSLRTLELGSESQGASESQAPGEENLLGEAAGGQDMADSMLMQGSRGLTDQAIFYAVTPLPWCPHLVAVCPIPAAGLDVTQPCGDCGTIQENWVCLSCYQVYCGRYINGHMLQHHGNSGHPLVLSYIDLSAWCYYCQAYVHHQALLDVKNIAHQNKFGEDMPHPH
In words: Inhibition of HDAC6 (unknown origin).

Data set [22] concerns A549. Nature of the data set: Potency index, ratio of vorinostat IC50 to test compound IC50 for cytotoxicity against human A549 cells assessed as inhibition of cell growth by MTT assay. It is filed as functional.
Data set [23] in a line: Cytotoxicity against human HuT 102 cells assessed as inhibition of cell growth by MTT assay. It is filed as functional, cell-based.
A further data set relates to HL-60. Nature of the data set: Antiproliferative activity against human HL-60 cells assessed as inhibition of cell growth by MTT assay. The data set is classed as functional, cell-based.
In another data set the target is Histone deacetylase 3 (Homo sapiens, UniProt O15379). Nature of the data set: Inhibition of HDAC3 (unknown origin).
Chain of Histone deacetylase 3 (O15379 whole entry): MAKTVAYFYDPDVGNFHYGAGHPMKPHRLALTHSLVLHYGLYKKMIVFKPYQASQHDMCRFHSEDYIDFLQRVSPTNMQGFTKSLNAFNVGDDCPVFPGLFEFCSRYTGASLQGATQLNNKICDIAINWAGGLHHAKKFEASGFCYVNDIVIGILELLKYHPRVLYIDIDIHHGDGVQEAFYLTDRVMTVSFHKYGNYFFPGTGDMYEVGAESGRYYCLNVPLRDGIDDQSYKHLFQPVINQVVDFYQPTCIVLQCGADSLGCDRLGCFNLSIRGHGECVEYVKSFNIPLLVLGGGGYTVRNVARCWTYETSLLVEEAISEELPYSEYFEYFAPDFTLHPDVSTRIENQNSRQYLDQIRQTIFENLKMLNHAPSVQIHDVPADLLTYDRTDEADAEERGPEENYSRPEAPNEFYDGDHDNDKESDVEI
For data set [24], the system named is A549. In words: Antitumor activity against human A549 cells xenografted in mouse assessed as inhibition of tumor growth at 30 mg/kg, ip relative to control. It is filed as functional.

Chain of Histone deacetylase 8 (Q9BY41 whole entry): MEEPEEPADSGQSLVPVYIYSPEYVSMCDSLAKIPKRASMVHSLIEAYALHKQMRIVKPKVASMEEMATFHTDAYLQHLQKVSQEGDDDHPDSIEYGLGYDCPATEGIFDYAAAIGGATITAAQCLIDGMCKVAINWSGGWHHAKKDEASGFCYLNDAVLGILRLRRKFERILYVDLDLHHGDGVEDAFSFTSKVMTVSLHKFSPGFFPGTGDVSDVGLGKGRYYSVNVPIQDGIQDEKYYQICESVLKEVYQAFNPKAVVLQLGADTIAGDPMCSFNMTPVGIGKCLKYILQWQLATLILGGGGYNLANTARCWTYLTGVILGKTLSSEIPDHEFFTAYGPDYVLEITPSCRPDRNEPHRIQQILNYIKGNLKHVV

For orientation: IC50 means the concentration that gives 50% inhibition. As to `O=C(CCCCCN1CCN2[C@H](Cc3c([nH]c4ccccc34)[C@H]2c2ccc(Br)cc2)C1)NO`, the IC50 in the data set with PC-3, in the data set with LNCaP, with MOLT-4, in the data set with SW-620, in the data set on HCT-116 and in the data set with AGS was 1500 nM in each case. The IC50 is 1500 nM in the data set on SUP-T1; 1500 nM in the data set on T47D; 46.3 nM in [1]; 14.5 nM on Histone deacetylase; 1500 nM with HT-29; 1500 nM in the data set on K562.
For the compound `O=C(CCCCCNC(=O)c1cc(O)c2c(c1)C(=O)c1cccc(O)c1C2=O)NO`, the concentration for half-maximal inhibition (IC50) (in the data set with T98G; in the data set on U-251; in data set [2]) was 5500 nM each time.
As to `O=C(CCCCCC(=O)N(Cc1ccc(Br)s1)c1ccc(OCCN2CCOCC2)cc1)NO`, the selectivity ratio in [3], in data set [6], in [8], in data set [9], in [10] and in data set [12] was above 16.2 throughout. Also, the selectivity ratio in data set [15], in [19] and in data set [20] was above 16.2 each time. For the same compound, the IC50 in [4] was above 100000 nM; in the data set on A549 [5], 620 nM; in the data set with MDA-MB-231 [7], 620 nM; with MCF7 [11], 620 nM; on Histone deacetylase 2, 1.14 nM; in data set [13] it was above 100000 nM. For the same compound, the concentration for half-maximal inhibition (IC50) was above 100000 nM in [14], 1.14 nM at Histone deacetylase 1, 1.14 nM against Histone deacetylase 8 and 1.14 nM in data set [21]. The Activity in the data set on MDA-MB-231 [16] is recorded as 93%. In addition, the “Ratio IC50” value in the data set on MCF7 [17], with MDA-MB-231 [18] and in the data set on A549 [22] was 3.7 in each case.
In general, inhibition in vivo refers to the percentage by which the read-out fell short of the control. `O=C(/C=C/c1ccc(S(=O)(=O)Nc2cc(F)cc(F)c2)cc1)NO`: the IC50 in [23] worked out at 770 nM; with HL-60, 770 nM; against Histone deacetylase 1, 5.2 nM; against Histone deacetylase 3, 5.2 nM; in data set [21], 5.2 nM. The inhibition in vivo at 30 mg/kg in the data set on A549 [24] turned out to be 41.5%.
